Source: publication PMC9820082, “Synthesis of 9-Hydroxy-1H-Benzo[f]chromene Derivatives with Effective Cytotoxic Activity on MCF7/ADR, P-Glycoprotein Inhibitors, Cell Cycle Arrest and Apoptosis Effects” (International Journal of Molecular Sciences, 2022)

Assays:
[1] = tested on: PC-3 (human prostate adenocarcinoma, metastatic); assay: MTT colorimetric cytotoxicity assay, PC-3; assay type: cell-based; details: for IC50: Homo sapiens, MTT, 24 h incubation, mean ± standard error; for times more active than Doxorubicin / times more active than Vinblastine: PC-3 cells, ratio of IC50 values
Experimental: (§1) Three human cancer cell lines, PC-3 (human prostate adenocarcinoma, metastatic), […], were used to test the anti-proliferative activity of β-enaminonitrile (4a–p) using the MTT colorimetric assay at concentrations ranging from 0–100 μM. The representative active cytotoxic substances 4a, 4c, 4d, 4e, 4g, 4i, 4k and 4o were also tested against two normal cell lines, human fetal lung (HFL-1) and human diploid fibroblasts (WI-38), as well as Adriamycin (ADR)-resistant human breast cancer cells (MCF-7/ADR). The reference cytotoxic agents, Vinblastine and Doxorubicin, were used in the tests.
(§2) The tumor cell lines MCF-7, HepG-2, PC-3 MCF-7/ADR, HFL-1 and (WI-38) were obtained from the American Type Culture Collection (ATCC, Rockville, MD, USA). The cells were grown on RPMI-1640 medium supplemented with 10% inactivated fetal calf serum and 50 µg/mL gentamycin. The cells were maintained at 37 ^οC in a humidified atmosphere with 5% CO2 and were subcultured two to three times a week.
(§3) The cytotoxic activity was appraised using the 3-(4,5-dimethylthiazol-2-yl)-2,5-diphenyltetrazolium bromide (MTT) colorimetric assay for the antitumor cell lines, as reported previously, and the ELISA assay for MCF-7/ADR [69].

[2] = tested on: SKOV-3 (ovarian cancer cell line); assay: MTT colorimetric cytotoxicity assay, SKOV-3; assay type: cell-based, human; details: 24 h incubation, mean ± standard error
Experimental: as §1, §3

[3] = tested on: HeLa (cervical cancer cell line); assay: MTT colorimetric cytotoxicity assay, HeLa; assay type: cell-based, human; details: Homo sapiens, HeLa, 24 h, 24 h incubation, mean ± standard error
Experimental: as §1, §3

[4] = tested on: Adriamycin (ADR)-resistant human breast cancer cells (MCF-7/ADR); assay: Cytotoxicity against MCF-7/ADR cells; assay type: cell-based; details: 24 h exposure, mean ± standard error
Experimental: as §1, §2, §3

human fetal lung (HFL-1) = assay: Cytotoxicity against normal cell line HFL-1; assay type: cell-based; details: 24 h incubation, mean ± standard error
Experimental: as §1, §2, §3

[5] = tested on: human diploid fibroblasts (WI-38); assay: Cytotoxicity against normal cell line WI-38; assay type: cell-based; details: 24 h incubation, mean ± standard error
Experimental: as §1, §2, §3

P-glycoprotein (P-gp) = assay: P-gp content in MCF-7/ADR cell lysate (human P-gp ELISA kit); assay type: cell-based; details: for inhibitory effect on the P-gp level: MCF-7/ADR, in words; for inhibition at 48 h, 12.5 µM / inhibition at 48 h, 25 µM / inhibition at 48 h, 50 µM / inhibition at 48 h, 100 µM / IC50 at 48 h: human, MCF-7/ADR cells (cell lysate), MCF-7/ADR cell lysate, ELISA; for inhibition at 48 h, 12.5 µM: Conc. 12.5 (µM); for inhibition at 48 h, 25 µM: Conc. 25 (µM); for inhibition at 48 h, 50 µM: Conc. 50 (µM); for inhibition at 48 h, 100 µM: Conc. 100 (µM)
Experimental: P-glycoprotein (P-gp)-mediated multidrug resistance (MDR) is a phenomenon in which cells become resistant to structurally and mechanistically unrelated drugs, resulting in low intracellular drug concentrations. It is one of the noteworthy problems in malignant tumor clinical therapeutics.
The content of P-gp in the MCF-7/ADR cell lysates after incubation with varying conc. (12.5–100 µM) of tested compounds 4a, 4c, 4d, 4e, 4g and 4i following exposure for 48 hr was determined using a commercial human P-gp (Permeability Glycoprotein) ELISA Kit (MBS2506188, MyBioSource Inc., San Diego, CA, USA). Absorption was recorded at 450 nm with a Spectramax Gemini fluorescence microplate reader (Molecular Devices, Sunnyvale, CA, USA).

[6] = Homo sapiens, NCI/ADR-RES, 24 h

SMILES | IC50 [1] [µM] | IC50 [2] [µM] | IC50 [3] [µM] | IC50 [4] [µM] | IC50 [4, 6] [µM] | IC50 (human fetal lung (HFL-1); Homo sapiens, HFL1, 24 h) [µM] | IC50 ([5]; Homo sapiens, WI-38, 24 h) [µM] | inhibitory effect on the P-gp level (P-glycoprotein (P-gp)) | inhibition at 48 h, 12.5 µM (P-glycoprotein (P-gp)) [%] | inhibition at 48 h, 25 µM (P-glycoprotein (P-gp)) [%] | inhibition at 48 h, 50 µM (P-glycoprotein (P-gp)) [%] | inhibition at 48 h, 100 µM (P-glycoprotein (P-gp)) [%] | IC50 at 48 h (P-glycoprotein (P-gp)) [µM] | IC50 ([2]; Homo sapiens, SK-OV-3, 24 h) [µM] | times more active than Doxorubicin [1] [times] | times more active than Vinblastine [1] [times] | IC50 [5] [µM] | IC50 (human fetal lung (HFL-1)) [µM]
N#CC1=C(N)Oc2ccc3ccc(O)cc3c2C1c1cccc(Cl)c1Cl (stereo not shown) [4c, 3-Amino-1-(2,3-Dichlorophenyl)-9-Hydroxy-1H-Benzo[f]chromene-2-Carbonitrile] | 2.9 ± 0.7 | 4 ± 0.6 | 1.7 ± 0.1 | 12.4 ± 0.1 | 8.6 to 11.5 | 22.1 ± 0.2 | 29.4 ± 0.1 | strong inhibitory effect | 26 | 37 | 71 | 88 | 30.8 |  |  |  |  | 
N#CC1=C(N)Oc2ccc3ccc(O)cc3c2C1c1cc(Cl)ccc1Cl (stereo not shown) [4e, 3-Amino-1-(2,5-Dichlorophenyl)-9-Hydroxy-1H-Benzo[f]chromene-2-Carbonitrile] | 2.1 ± 0.5 |  | 2.7 ± 0.6 |  | 10 ± 0.3 | 24.1 ± 0.3 | 25.4 ± 1.1 | strong inhibitory effect | 36 | 54 | 80 | 91 | 18.7 | 1.1 ± 0.4 |  |  |  | 
N#CC1=C(N)Oc2ccc3ccc(O)cc3c2C1c1ccc(F)cc1F (stereo not shown) [4a, 3-Amino-1-(2,4-Difluorophenyl)-9-Hydroxy-1H-Benzo[f]chromene-2-Carbonitrile] | 1.1 ± 0.4 |  | 2.8 ± 0.3 |  | 10.8 ± 0.4 | 26.5 ± 0.3 | 19.1 to 30.1 | strong inhibitory effect | 25 | 37 | 68 | 80 | 32 | 1.4 ± 0.2 | 1.2 | 6.8 | 34.3 ± 1.2 | 
N#CC1=C(N)Oc2ccc3ccc(O)cc3c2C1c1ccc(Cl)cc1Cl (stereo not shown) [4d, 3-Amino-1-(2,4-Dichlorophenyl)-9-Hydroxy-1H-Benzo[f]chromene-2-Carbonitrile] | 2 ± 0.7 |  | 1.8 ± 0.1 |  | 10.4 ± 0.3 | 20.1 ± 0.4 |  | almost negligible inhibitory effect | 10 | 25 | 43 | 69 | 65.9 | 1.5 ± 0.1 |  |  | 39.1 ± 0.2 | 
N#CC1=C(N)Oc2ccc3ccc(O)cc3c2C1c1cc(Br)cc(Br)c1 (stereo not shown) [4i, 3-Amino-1-(3,5-Dibromophenyl)-9-Hydroxy-1H-Benzo[f]chromene-2-Carbonitrile] | 0.8 ± 0.1 | 1.1 ± 0.1 | 3.4 ± 0.6 |  | 8.6 ± 0.7 | 19.1 to 30.1 | 29.2 ± 1.2 | almost negligible inhibitory effect | 15 | 30 | 48 | 76 | 53.6 | 1.2 | 1.6 | 9.4 |  | 38.1 ± 0.4
N#CC1=C(N)Oc2ccc3ccc(O)cc3c2C1c1ccc(Cl)c(Cl)c1 (stereo not shown) [4g, 3-Amino-1-(3,4-Dichlorophenyl)-9-Hydroxy-1H-Benzo[f]chromene-2-Carbonitrile] | 2.4 ± 0.1 |  | 2.2 ± 0.2 |  | 11.5 ± 0.4 | 27.4 ± 0.1 | 26.3 ± 0.2 |  | 23 | 34 | 66 | 83 | 34.6 | 0.9 ± 0.3 |  |  |  | 
